Source: the kinase profiling compilation of Christmann-Franck et al. (2016)

Legend:
Experiment in all cases: KINOMEscan competition binding
Settings in all cases: compound 10.0 µM
CDK5 (human) = CDK5 (human) (UniProt Q00535)
AKT2 (human) = AKT2 (human) (UniProt P31751)
HCK (human) = HCK (human) (UniProt P08631)
[1] = tested on: EIF2AK4 KD2 (human), Q9P2K8 [S808G]
ACVR2A (human) = ACVR2A (human) (UniProt P27037)
MAP4K5 (human) = MAP4K5 (human) (UniProt Q9Y4K4)
SRPK1 (human) = SRPK1 (human) (UniProt Q96SB4)
SRPK1 (human), sequence (Q96SB4 whole entry, looked up): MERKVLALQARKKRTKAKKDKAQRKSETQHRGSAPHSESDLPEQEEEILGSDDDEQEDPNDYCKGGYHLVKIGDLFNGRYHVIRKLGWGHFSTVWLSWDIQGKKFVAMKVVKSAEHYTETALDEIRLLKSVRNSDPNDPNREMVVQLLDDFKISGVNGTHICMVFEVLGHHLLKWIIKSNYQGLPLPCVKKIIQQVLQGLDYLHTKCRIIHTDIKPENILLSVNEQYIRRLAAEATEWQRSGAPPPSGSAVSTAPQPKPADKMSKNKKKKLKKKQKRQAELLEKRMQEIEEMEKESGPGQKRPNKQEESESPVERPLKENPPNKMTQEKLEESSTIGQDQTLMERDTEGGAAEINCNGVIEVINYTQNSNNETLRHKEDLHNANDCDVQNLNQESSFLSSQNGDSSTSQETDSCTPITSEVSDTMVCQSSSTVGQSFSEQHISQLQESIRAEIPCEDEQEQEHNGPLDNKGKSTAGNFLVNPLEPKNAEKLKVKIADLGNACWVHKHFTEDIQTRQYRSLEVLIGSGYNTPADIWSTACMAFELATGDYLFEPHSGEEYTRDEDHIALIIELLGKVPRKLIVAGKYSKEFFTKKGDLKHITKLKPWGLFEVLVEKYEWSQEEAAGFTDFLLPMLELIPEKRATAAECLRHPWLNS

MAP3K11 (human) = MAP3K11 (human) (UniProt Q16584)
MAP3K11 (human), sequence (Q16584 whole entry, looked up): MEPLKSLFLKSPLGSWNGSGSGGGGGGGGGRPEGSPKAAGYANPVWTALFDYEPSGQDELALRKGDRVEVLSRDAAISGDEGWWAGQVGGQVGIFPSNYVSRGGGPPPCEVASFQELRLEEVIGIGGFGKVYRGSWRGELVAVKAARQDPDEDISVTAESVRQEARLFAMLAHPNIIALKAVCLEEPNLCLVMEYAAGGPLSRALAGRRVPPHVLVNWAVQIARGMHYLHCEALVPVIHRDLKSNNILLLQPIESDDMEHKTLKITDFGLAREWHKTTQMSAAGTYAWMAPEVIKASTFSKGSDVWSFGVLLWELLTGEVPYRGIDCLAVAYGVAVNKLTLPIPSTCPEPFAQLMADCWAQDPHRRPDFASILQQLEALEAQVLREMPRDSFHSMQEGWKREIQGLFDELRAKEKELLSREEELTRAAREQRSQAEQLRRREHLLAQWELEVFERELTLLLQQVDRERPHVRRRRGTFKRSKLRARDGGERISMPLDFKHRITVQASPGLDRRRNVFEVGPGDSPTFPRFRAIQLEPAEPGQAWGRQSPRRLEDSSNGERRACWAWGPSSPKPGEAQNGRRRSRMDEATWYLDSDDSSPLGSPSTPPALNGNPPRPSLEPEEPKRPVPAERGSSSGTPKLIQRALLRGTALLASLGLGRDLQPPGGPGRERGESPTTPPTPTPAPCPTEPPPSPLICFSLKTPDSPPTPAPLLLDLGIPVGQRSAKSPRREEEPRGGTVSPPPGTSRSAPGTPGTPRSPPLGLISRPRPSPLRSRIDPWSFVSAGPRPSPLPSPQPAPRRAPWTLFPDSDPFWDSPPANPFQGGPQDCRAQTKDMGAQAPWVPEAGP

AURKB (human) = AURKB (human) (UniProt Q96GD4)
CDK17 (human) = CDK17 (human) (UniProt Q00537)
MKNK2 (human) = MKNK2 (human) (UniProt Q9HBH9)
DMPK (human) = DMPK (human) (UniProt Q09013)
MAP2K4 (human) = MAP2K4 (human) (UniProt P45985)
NTRK1 (human) = NTRK1 (human) (UniProt P04629)
MUSK (human) = MUSK (human) (UniProt O15146)
CLK2 (human) = CLK2 (human) (UniProt P49760)
ANKK1 (human) = ANKK1 (human) (UniProt Q8NFD2)
MAP3K9 (human) = MAP3K9 (human) (UniProt P80192)
CDK15 (human) = CDK15 (human) (UniProt Q96Q40)
NTRK2 (human) = NTRK2 (human) (UniProt Q16620)
PRKACA (human) = PRKACA (human) (UniProt P17612)
MINK1 (human) = MINK1 (human) (UniProt Q8N4C8)
CAMK2A (human) = CAMK2A (human) (UniProt Q9UQM7)
ERBB4 (human) = ERBB4 (human) (UniProt Q15303)
STK33 (human) = STK33 (human) (UniProt Q9BYT3)
STK33 (human), sequence (Q9BYT3 whole entry, looked up): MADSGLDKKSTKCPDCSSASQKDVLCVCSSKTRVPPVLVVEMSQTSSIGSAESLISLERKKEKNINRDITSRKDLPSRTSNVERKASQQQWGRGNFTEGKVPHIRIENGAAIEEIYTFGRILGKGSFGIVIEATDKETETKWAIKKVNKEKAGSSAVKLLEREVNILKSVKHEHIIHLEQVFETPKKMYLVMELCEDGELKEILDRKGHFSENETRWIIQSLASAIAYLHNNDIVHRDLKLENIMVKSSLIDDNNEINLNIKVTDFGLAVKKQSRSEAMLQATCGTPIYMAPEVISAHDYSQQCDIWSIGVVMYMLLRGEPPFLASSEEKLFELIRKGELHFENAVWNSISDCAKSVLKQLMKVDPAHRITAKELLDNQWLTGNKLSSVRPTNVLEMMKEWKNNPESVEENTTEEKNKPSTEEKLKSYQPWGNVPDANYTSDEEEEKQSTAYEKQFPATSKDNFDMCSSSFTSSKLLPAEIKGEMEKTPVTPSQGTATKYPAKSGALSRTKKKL

NEK1 (human) = NEK1 (human) (UniProt Q96PY6)
RPS6KA6 KD1 (human) = RPS6KA6 KD1 (human) (UniProt Q9UK32)
PRKACB (human) = PRKACB (human) (UniProt P22694)
LATS2 (human) = LATS2 (human) (UniProt Q9NRM7)
MAPK15 (human) = MAPK15 (human) (UniProt Q8TD08)
SRPK2 (human) = SRPK2 (human) (UniProt P78362)
SRPK2 (human), sequence (P78362 whole entry, looked up): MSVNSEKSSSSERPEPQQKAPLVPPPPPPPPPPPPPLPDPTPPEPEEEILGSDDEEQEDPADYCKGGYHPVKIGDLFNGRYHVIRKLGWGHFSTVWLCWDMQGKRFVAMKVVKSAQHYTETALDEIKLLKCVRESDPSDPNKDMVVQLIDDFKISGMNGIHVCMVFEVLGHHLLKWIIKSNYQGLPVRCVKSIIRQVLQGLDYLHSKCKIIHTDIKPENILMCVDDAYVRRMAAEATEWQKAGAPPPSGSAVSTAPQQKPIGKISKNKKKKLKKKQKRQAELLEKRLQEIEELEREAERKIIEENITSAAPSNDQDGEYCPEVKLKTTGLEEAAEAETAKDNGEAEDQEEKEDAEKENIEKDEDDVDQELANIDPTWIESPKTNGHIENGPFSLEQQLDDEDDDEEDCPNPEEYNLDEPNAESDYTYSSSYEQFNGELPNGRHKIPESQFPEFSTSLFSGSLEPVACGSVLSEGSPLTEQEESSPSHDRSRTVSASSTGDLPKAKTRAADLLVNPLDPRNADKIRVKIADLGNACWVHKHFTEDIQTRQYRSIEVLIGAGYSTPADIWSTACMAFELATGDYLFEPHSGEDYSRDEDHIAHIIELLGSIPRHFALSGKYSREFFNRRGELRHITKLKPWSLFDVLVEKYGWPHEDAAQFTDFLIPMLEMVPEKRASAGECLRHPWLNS

EPHB1 (human) = EPHB1 (human) (UniProt P54762)
CSNK2A1 (human) = CSNK2A1 (human) (UniProt P68400)
STK17A (human) = STK17A (human) (UniProt Q9UEE5)
LCK (human) = LCK (human) (UniProt P06239)
PDGFRB (human) = PDGFRB (human) (UniProt P09619)
MAPK9 (human) = MAPK9 (human) (UniProt P45984)
PAK1 (human) = PAK1 (human) (UniProt Q13153)
ERBB2 (human) = ERBB2 (human) (UniProt P04626)
ERBB2 (human), sequence (P04626 whole entry, looked up): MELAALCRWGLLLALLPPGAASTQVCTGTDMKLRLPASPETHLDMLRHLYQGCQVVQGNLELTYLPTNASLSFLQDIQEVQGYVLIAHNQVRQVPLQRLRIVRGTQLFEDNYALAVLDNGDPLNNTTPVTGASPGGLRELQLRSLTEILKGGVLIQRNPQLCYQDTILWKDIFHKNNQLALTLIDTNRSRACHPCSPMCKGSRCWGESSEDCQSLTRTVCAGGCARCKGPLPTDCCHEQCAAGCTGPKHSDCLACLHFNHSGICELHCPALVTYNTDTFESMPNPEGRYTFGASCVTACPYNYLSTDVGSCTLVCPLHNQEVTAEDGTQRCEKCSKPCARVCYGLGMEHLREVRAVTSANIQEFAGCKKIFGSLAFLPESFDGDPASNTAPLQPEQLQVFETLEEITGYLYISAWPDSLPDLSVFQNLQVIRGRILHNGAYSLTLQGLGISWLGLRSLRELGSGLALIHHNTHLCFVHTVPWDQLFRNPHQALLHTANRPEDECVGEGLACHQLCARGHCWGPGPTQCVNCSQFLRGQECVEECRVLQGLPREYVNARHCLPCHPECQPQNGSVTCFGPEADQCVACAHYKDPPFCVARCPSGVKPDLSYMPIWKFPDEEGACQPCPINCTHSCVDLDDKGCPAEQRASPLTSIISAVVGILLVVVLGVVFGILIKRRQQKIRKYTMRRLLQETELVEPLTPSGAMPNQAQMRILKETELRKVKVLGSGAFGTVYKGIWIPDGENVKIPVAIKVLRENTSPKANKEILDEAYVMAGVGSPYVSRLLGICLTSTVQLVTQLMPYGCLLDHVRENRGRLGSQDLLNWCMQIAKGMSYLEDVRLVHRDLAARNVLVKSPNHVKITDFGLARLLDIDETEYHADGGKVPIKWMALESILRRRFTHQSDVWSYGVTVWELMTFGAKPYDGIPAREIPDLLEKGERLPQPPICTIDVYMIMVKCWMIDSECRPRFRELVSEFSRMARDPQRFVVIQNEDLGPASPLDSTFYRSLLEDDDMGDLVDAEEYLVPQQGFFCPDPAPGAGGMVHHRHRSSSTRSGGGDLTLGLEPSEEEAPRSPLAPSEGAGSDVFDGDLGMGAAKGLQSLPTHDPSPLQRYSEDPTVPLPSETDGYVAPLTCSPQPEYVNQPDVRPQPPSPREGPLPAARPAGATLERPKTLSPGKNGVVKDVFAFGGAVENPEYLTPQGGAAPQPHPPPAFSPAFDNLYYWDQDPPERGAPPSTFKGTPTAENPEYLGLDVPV

MYLK (human) = MYLK (human) (UniProt Q15746)

MAP4K5 (human), sequence (Q9Y4K4 whole entry, looked up): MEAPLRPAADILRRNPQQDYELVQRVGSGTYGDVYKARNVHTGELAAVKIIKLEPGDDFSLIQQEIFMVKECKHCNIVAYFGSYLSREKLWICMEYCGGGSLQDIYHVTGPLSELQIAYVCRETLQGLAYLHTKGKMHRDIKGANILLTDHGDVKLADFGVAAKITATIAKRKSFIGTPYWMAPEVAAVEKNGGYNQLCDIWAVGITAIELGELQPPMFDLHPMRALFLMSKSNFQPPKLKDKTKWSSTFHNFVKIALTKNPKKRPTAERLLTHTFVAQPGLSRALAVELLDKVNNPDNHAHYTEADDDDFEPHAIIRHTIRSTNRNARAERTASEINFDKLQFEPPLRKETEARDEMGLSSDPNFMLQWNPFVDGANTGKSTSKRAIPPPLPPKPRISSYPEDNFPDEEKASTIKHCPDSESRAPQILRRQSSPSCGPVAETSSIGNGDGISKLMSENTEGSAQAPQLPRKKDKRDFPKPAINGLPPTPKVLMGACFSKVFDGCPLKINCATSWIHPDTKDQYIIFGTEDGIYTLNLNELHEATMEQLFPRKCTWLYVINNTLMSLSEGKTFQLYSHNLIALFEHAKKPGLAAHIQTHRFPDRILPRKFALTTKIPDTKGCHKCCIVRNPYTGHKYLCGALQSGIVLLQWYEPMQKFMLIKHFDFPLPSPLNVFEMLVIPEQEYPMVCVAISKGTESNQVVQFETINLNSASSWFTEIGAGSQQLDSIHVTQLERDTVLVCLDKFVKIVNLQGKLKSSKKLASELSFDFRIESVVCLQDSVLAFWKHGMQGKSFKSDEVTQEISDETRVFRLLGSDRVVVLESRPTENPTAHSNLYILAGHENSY

Structure (SMILES) | kinase still bound, per cent of control (CDK5 (human)) [%] | kinase still bound, per cent of control (AKT2 (human)) [%] | kinase still bound, per cent of control (HCK (human)) [%] | kinase still bound, per cent of control [1] [%] | kinase still bound, per cent of control (ACVR2A (human)) [%] | kinase still bound, per cent of control (MAP4K5 (human)) [%] | kinase still bound, per cent of control (SRPK1 (human)) [%] | kinase still bound, per cent of control (MAP3K11 (human)) [%] | kinase still bound, per cent of control (AURKB (human)) [%] | kinase still bound, per cent of control (CDK17 (human)) [%] | kinase still bound, per cent of control (MKNK2 (human)) [%] | kinase still bound, per cent of control (DMPK (human)) [%] | kinase still bound, per cent of control (MAP2K4 (human)) [%] | kinase still bound, per cent of control (NTRK1 (human)) [%] | kinase still bound, per cent of control (MUSK (human)) [%] | kinase still bound, per cent of control (CLK2 (human)) [%] | kinase still bound, per cent of control (ANKK1 (human)) [%] | kinase still bound, per cent of control (MAP3K9 (human)) [%] | kinase still bound, per cent of control (CDK15 (human)) [%] | kinase still bound, per cent of control (NTRK2 (human)) [%] | also measured
O=C(NC1CC1)c1cccc(-c2ccc3c(NC(=O)C4CC4)n[nH]c3c2)c1 | 60 | 91 | 100 | 96 | 92 | 24 | 43 | 100 | 30 | 37 | 50 | 100 | 66 | 60 | 91 | 37 | 8 | 66 | 84 | 61 | kinase still bound, per cent of control (PRKACA (human)): 100%; kinase still bound, per cent of control (MINK1 (human)): 43%; kinase still bound, per cent of control (CAMK2A (human)): 88%; kinase still bound, per cent of control (ERBB4 (human)): 95%; kinase still bound, per cent of control (STK33 (human)): 100%; kinase still bound, per cent of control (NEK1 (human)): 86%; kinase still bound, per cent of control (RPS6KA6 KD1 (human)): 91%; kinase still bound, per cent of control (PRKACB (human)): 100%; kinase still bound, per cent of control (LATS2 (human)): 85%; kinase still bound, per cent of control (MAPK15 (human)): 2.9%; kinase still bound, per cent of control (SRPK2 (human)): 58%; kinase still bound, per cent of control (EPHB1 (human)): 100%; kinase still bound, per cent of control (CSNK2A1 (human)): 62%; kinase still bound, per cent of control (STK17A (human)): 96%; kinase still bound, per cent of control (LCK (human)): 100%; kinase still bound, per cent of control (PDGFRB (human)): 24%; kinase still bound, per cent of control (MAPK9 (human)): 50%; kinase still bound, per cent of control (PAK1 (human)): 70%; kinase still bound, per cent of control (ERBB2 (human)): 100%; kinase still bound, per cent of control (MYLK (human)): 63%
CN(C)C/C=C/C(=O)Nc1cccc(Nc2ncc3c(n2)N(C)c2ccccc2C(=O)N3C)c1 | 100 | 99 | 13 | 62 | 57 | 75 | 23 | 100 | 0.1 | 80 | 0.3 | 32 | 100 | 18 | 100 | 41 | 6 | 89 | 84 | 4 | kinase still bound, per cent of control (PRKACA (human)): 100%; kinase still bound, per cent of control (MINK1 (human)): 29%; kinase still bound, per cent of control (CAMK2A (human)): 32%; kinase still bound, per cent of control (ERBB4 (human)): 100%; kinase still bound, per cent of control (STK33 (human)): 8.9%; kinase still bound, per cent of control (NEK1 (human)): 69%; kinase still bound, per cent of control (RPS6KA6 KD1 (human)): 9.2%; kinase still bound, per cent of control (PRKACB (human)): 100%; kinase still bound, per cent of control (LATS2 (human)): 97%; kinase still bound, per cent of control (MAPK15 (human)): 100%; kinase still bound, per cent of control (SRPK2 (human)): 100%; kinase still bound, per cent of control (EPHB1 (human)): 90%; kinase still bound, per cent of control (CSNK2A1 (human)): 100%; kinase still bound, per cent of control (STK17A (human)): 97%; kinase still bound, per cent of control (LCK (human)): 1.2%; kinase still bound, per cent of control (PDGFRB (human)): 38%; kinase still bound, per cent of control (MAPK9 (human)): 100%; kinase still bound, per cent of control (PAK1 (human)): 91%; kinase still bound, per cent of control (ERBB2 (human)): 65%; kinase still bound, per cent of control (MYLK (human)): 69%
CCN1CCN(Cc2ccc(Nc3ncc4c(n3)N(C)c3ccccc3C(=O)N4C)cc2C(F)(F)F)CC1 | 84 | 100 | 24 | 88 | 56 | 35 | 82 | 84 | 0.95 | 88 | 0.2 | 91 | 100 | 34 | 100 | 39 | 18 | 58 | 76 | 60 | kinase still bound, per cent of control (PRKACA (human)): 100%; kinase still bound, per cent of control (MINK1 (human)): 68%; kinase still bound, per cent of control (CAMK2A (human)): 53%; kinase still bound, per cent of control (ERBB4 (human)): 95%; kinase still bound, per cent of control (STK33 (human)): 36%; kinase still bound, per cent of control (NEK1 (human)): 66%; kinase still bound, per cent of control (RPS6KA6 KD1 (human)): 19%; kinase still bound, per cent of control (PRKACB (human)): 100%; kinase still bound, per cent of control (LATS2 (human)): 91%; kinase still bound, per cent of control (MAPK15 (human)): 100%; kinase still bound, per cent of control (SRPK2 (human)): 81%; kinase still bound, per cent of control (EPHB1 (human)): 100%; kinase still bound, per cent of control (CSNK2A1 (human)): 79%; kinase still bound, per cent of control (STK17A (human)): 100%; kinase still bound, per cent of control (LCK (human)): 5%; kinase still bound, per cent of control (PDGFRB (human)): 56%; kinase still bound, per cent of control (MAPK9 (human)): 57%; kinase still bound, per cent of control (PAK1 (human)): 86%; kinase still bound, per cent of control (ERBB2 (human)): 100%; kinase still bound, per cent of control (MYLK (human)): 64%
